Patent US7745495B2, “Pyridine ketones with herbicidal effect” (Syngenta Crop Protection, Inc., priority 2004, dated 2010)

Tests used:
Type in all cases: in vivo
Brachiaria = test: Pre-emergent herbicidal activity; conditions: Table B3, rating 10=total damage, 0=no action
Method: (§1) Monocotyledonous and dicotyledonous test plants are sown in standard soil in plastic pots. […] The test plants are then grown in a greenhouse under optimum conditions. After a test duration of 3 weeks, the test is evaluated in accordance with a scale of ten ratings (10=total damage, 0=no action). Ratings of from 10 to 7 (especially from 10 to 8) indicate good to very good herbicidal action.
(§2) In the following Table B3, the pre-emergent herbicidal activity of compound H-14 according to the invention is compared with 4 compounds according to the prior art. All compounds are structurally identical except for the nature of the alkylene linker attached to the pyridine ring.

Setaria [1] = test: Pre-emergent herbicidal activity; conditions: Table B3, rating 10=total damage, 0=no action
Method: as §1, §2

Corn = test: Pre-emergent herbicidal activity on crop plant; conditions: for Pre-emergent Herbicidal Activity: Corn: Table B3, crop plant, rating 10=total damage, 0=no action
Method: as §1, §2

Soya = test: Pre-emergent herbicidal activity on crop plant; conditions: for Pre-emergent Herbicidal Activity: Soya: Table B3, crop plant, rating 10=total damage, 0=no action
Method: as §1, §2

Echinochloa = test: Pre-emergence herbicidal action; conditions: rating 10=total damage, 0=no action; for Pre-emergent Herbicidal Activity: Echinochloa: Table B3; for Pre-emergence herbicidal action: Echinochloa: 250 g/ha, after 3 weeks
Method: as §1

Amaranthus = test: Pre-emergence herbicidal action; conditions: rating 10=total damage, 0=no action; for Pre-emergent Herbicidal Activity: Amaranthus: Table B3; for Pre-emergence herbicidal action: Amaranthus: 250 g/ha, after 3 weeks
Method: as §1

Abutilon [2] = test: Pre-emergence herbicidal action; conditions: rating 10=total damage, 0=no action; for Pre-emergent Herbicidal Activity: Abutilon: Table B3; for Pre-emergence herbicidal action: Abutilon: 250 g/ha, after 3 weeks
Method: as §1

Chenopodium [3] = test: Pre-emergence herbicidal action; conditions: 250 g/ha; after 3 weeks; rating 10=total damage, 0=no action
Method: (§3) Monocotyledonous and dicotyledonous test plants are sown in standard soil in plastic pots. Immediately after sowing, the test compounds, in the form of an aqueous suspension (prepared from a 25% wettable powder (Example F3, b) according to WO 97/34485) or in the form of an emulsion (prepared from a 25% emulsifiable concentrate (Example F1, c)), are applied by spraying a concentration corresponding to 125 g or 250 g of active ingredient/ha (500 liter of water/ha). The test plants are then grown in a greenhouse under optimum conditions. After a test duration of 3 weeks, the test is evaluated in accordance with a scale of ten ratings (10=total damage, 0=no action). Ratings of from 10 to 7 (especially from 10 to 8) indicate good to very good herbicidal action.

Stellaria [4] = test: Pre-emergence herbicidal action; conditions: 250 g/ha; after 3 weeks; rating 10=total damage, 0=no action
Method: as §3

Digitaria [5] = test: Pre-emergence herbicidal action; conditions: 250 g/ha; after 3 weeks; rating 10=total damage, 0=no action
Method: as §1

Panicum [6] = test: Pre-emergence herbicidal action; conditions: 250 g/ha; after 3 weeks; rating 10=total damage, 0=no action
Method: as §1

Sinapis = test: Post-emergence herbicidal action; conditions: 250 g/ha; 4- to 6-leaf stage; after about 18 days; rating 10=total damage, 0=no action
Method: (§4) In a greenhouse, monocotyledonous and dicotyledonous test plants are grown in standard soil in plastic pots and at the 4- to 6-leaf stage are sprayed with an aqueous suspension of the test compounds of formula I prepared from a 25% wettable powder (Example F3, b) according to WO 97/34485) or with an emulsion of the test compounds of formula I prepared from a 25% emulsifiable concentrate (Example F1, c) according to WO 97/34485), in a concentration corresponding to 125 g or 250 g of active ingredient/ha (500 liter of water/ha). The test plants are then grown on in a greenhouse under optimum conditions. After a test duration of about 18 days, the test is evaluated in accordance with a scale of ten ratings (10=total damage, 0=no action). Ratings of from 10 to 7 (especially from 10 to 8) indicate good to very good herbicidal action.

Digitaria [7] = test: Post-emergence herbicidal action; conditions: 250 g/ha; 4- to 6-leaf stage; after about 18 days; rating 10=total damage, 0=no action
Method: as §4

Ipomea = test: Post-emergence herbicidal action; conditions: 250 g/ha; 4- to 6-leaf stage; after about 18 days; rating 10=total damage, 0=no action
Method: as §4

Chenopodium [8] = test: Post-emergence herbicidal action; conditions: 250 g/ha; 4- to 6-leaf stage; after about 18 days; rating 10=total damage, 0=no action
Method: as §4

Stellaria [9] = test: Post-emergence herbicidal action; conditions: 250 g/ha; 4- to 6-leaf stage; after about 18 days; rating 10=total damage, 0=no action
Method: as §4

Abutilon [10] = test: Post-emergence herbicidal action; conditions: 250 g/ha; 4- to 6-leaf stage; after about 18 days; rating 10=total damage, 0=no action
Method: as §4

Setaria [11] = test: Post-emergence herbicidal action; conditions: 250 g/ha; 4- to 6-leaf stage; after about 18 days; rating 10=total damage, 0=no action
Method: as §4

Panicum [12] = test: Post-emergence herbicidal action; conditions: 250 g/ha; 4- to 6-leaf stage; after about 18 days; rating 10=total damage, 0=no action
Method: as §4

[13] = pre-emergent, 30 and 15 g/ha, result in words on Table B3

SMILES	Pre-emergent Herbicidal Activity: Brachiaria (Brachiaria; 15 g/ha)	Pre-emergent Herbicidal Activity: Brachiaria (Brachiaria; 30 g/ha)	Pre-emergent Herbicidal Activity: Setaria (Setaria [1]; 30 g/ha)	Pre-emergent Herbicidal Activity: Corn (Corn; 15 g/ha)	Pre-emergent Herbicidal Activity: Corn (Corn; 30 g/ha)	Pre-emergent Herbicidal Activity: Soya (Soya; 15 g/ha)	Pre-emergent Herbicidal Activity: Soya (Soya; 30 g/ha)	Pre-emergent Herbicidal Activity: Echinochloa (Echinochloa; 30 g/ha)	Pre-emergent Herbicidal Activity: Amaranthus (Amaranthus; 15 g/ha)	Pre-emergent Herbicidal Activity: Amaranthus (Amaranthus; 30 g/ha)	Pre-emergent Herbicidal Activity: Abutilon (Abutilon [2]; 15 g/ha)	Pre-emergent Herbicidal Activity: Abutilon (Abutilon [2]; 30 g/ha)	Post-emergence herbicidal action: Sinapis (Sinapis)	Post-emergence herbicidal action: Digitaria (Digitaria [7])	Post-emergence herbicidal action: Ipomea (Ipomea)	Post-emergence herbicidal action: Chenopodium (Chenopodium [8])	Post-emergence herbicidal action: Stellaria (Stellaria [9])	Post-emergence herbicidal action: Abutilon (Abutilon [10])	Post-emergence herbicidal action: Setaria (Setaria [11])	Post-emergence herbicidal action: Panicum (Panicum [12])	further results
COCCc1nc(C(F)(F)F)ccc1C(=O)C1C(=O)C2CCC(C2)C1=O (stereo not drawn) [A]	6	7	7	0	0	2	5	9	7	7	9	9	–	–	–	–	–	–	–	–	Pre-emergent Herbicidal Activity: Setaria (Setaria [1]; 15 g/ha): 6; Pre-emergent Herbicidal Activity: Echinochloa (Echinochloa; 15 g/ha): 4
COCc1nc(C(F)(F)F)ccc1C(=O)C1C(=O)C2CCC(C2)C1=O (stereo not drawn) [B]	6	9	9	1	1	6	8	10	6	8	8	9	–	–	–	–	–	–	–	–	Pre-emergent Herbicidal Activity: Setaria (Setaria [1]; 15 g/ha): 8; Pre-emergent Herbicidal Activity: Echinochloa (Echinochloa; 15 g/ha): 9
COC/C=C\c1nc(C(F)(F)F)ccc1C(=O)C1C(=O)C2CCC(C2)C1=O (stereo not drawn) [C]	0	0	2	0	0	0	0	3	3	5	3	4	–	–	–	–	–	–	–	–	Pre-emergent Herbicidal Activity: Setaria (Setaria [1]; 15 g/ha): 2; Pre-emergent Herbicidal Activity: Echinochloa (Echinochloa; 15 g/ha): 3
COCCCCc1nc(C(F)(F)F)ccc1C(=O)C1C(=O)C2CCC(C2)C1=O (stereo not drawn) [Compound F]	0	6	6	0	0	0	0	7	7	7	8	8	–	–	–	–	–	–	–	–	phytotoxic effect on the crop plants (corn) (Corn; [13]): no phytotoxic effect; phytotoxic effect on the crop plants (soya) (Soya; [13]): no phytotoxic effect
COCCCc1nc(C(F)F)ccc1C(=O)C1C(=O)C2CCC(C)(C2)C1=O (stereo not drawn) [Compound H-1]	–	–	–	–	–	–	–	–	–	–	–	–	8	9	9	8	8	9	8	9	Pre-emergence herbicidal action: Chenopodium (Chenopodium [3]): 10; Pre-emergence herbicidal action: Stellaria (Stellaria [4]): 7; Pre-emergence herbicidal action: Echinochloa (Echinochloa): 9; Pre-emergence herbicidal action: Digitaria (Digitaria [5]): 9; Pre-emergence herbicidal action: Amaranthus (Amaranthus): 9; Pre-emergence herbicidal action: Abutilon (Abutilon [2]): 9; Pre-emergence herbicidal action: Panicum (Panicum [6]): 9
COCCCc1nc(C(F)F)ccc1C(=O)C1C(=O)C2CCC(CC2)C1=O (stereo not drawn) [Compound H-4]	–	–	–	–	–	–	–	–	–	–	–	–	9	9	7	7	8	8	7	9	Pre-emergence herbicidal action: Chenopodium (Chenopodium [3]): 9; Pre-emergence herbicidal action: Stellaria (Stellaria [4]): 7; Pre-emergence herbicidal action: Echinochloa (Echinochloa): 9; Pre-emergence herbicidal action: Digitaria (Digitaria [5]): 9; Pre-emergence herbicidal action: Amaranthus (Amaranthus): 9; Pre-emergence herbicidal action: Abutilon (Abutilon [2]): 9; Pre-emergence herbicidal action: Panicum (Panicum [6]): 9
CCOCCCc1nc(C(F)(F)F)ccc1C(=O)C1C(=O)C2CCC(C2)C1=O (stereo not drawn) [Compound H-15]	–	–	–	–	–	–	–	–	–	–	–	–	9	8	8	10	9	9	8	9	Pre-emergence herbicidal action: Chenopodium (Chenopodium [3]): 10; Pre-emergence herbicidal action: Stellaria (Stellaria [4]): 10; Pre-emergence herbicidal action: Echinochloa (Echinochloa): 10; Pre-emergence herbicidal action: Digitaria (Digitaria [5]): 9; Pre-emergence herbicidal action: Amaranthus (Amaranthus): 10; Pre-emergence herbicidal action: Abutilon (Abutilon [2]): 10; Pre-emergence herbicidal action: Panicum (Panicum [6]): 10
CCC12CCC(C1)C(=O)C(C(=O)c1ccc(C(F)(F)F)nc1CCCOC)C2=O (stereo not drawn) [Compound H-17]	–	–	–	–	–	–	–	–	–	–	–	–	9	7	7	8	9	9	8	8	–
COCCCc1nc(C(F)(F)F)ccc1C(=O)C1C(=O)C2CCCC(C2)C1=O (stereo not drawn) [Compound H-19]	–	–	–	–	–	–	–	–	–	–	–	–	9	9	8	9	8	8	8	8	–
